Marks after values point to notes of the source that are not given here.
How the values were obtained:
GLP-1R = molecular target: T1, GLP-1R (Homo sapiens, UniProt P43220); test: In vitro cell activity, cAMP production in HEK293 cells expressing GLP-1R; format: cell-based
T1 construct: expressed in transfected cells; host or cells: HEK293 (HEK293-GLP-1R)
How it was run: (§1)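 Assay format: cells at 4×10^5 cells/mL, cAMP sensed by d2/cryptate FRET pair, dual-wavelength read at 665 and 620 nm. Potency expressed as EC50 from nonlinear fitting.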

GCGR = molecular target: T2, GCGR (Homo sapiens, UniProt P47871); test: In vitro cell activity, cAMP production in HEK293 cells expressing GCGR; format: cell-based
T2 construct: expressed in transfected cells; host or cells: HEK293 (HEK293-GCGR)
T2 sequence (P47871 26-477, species assumed): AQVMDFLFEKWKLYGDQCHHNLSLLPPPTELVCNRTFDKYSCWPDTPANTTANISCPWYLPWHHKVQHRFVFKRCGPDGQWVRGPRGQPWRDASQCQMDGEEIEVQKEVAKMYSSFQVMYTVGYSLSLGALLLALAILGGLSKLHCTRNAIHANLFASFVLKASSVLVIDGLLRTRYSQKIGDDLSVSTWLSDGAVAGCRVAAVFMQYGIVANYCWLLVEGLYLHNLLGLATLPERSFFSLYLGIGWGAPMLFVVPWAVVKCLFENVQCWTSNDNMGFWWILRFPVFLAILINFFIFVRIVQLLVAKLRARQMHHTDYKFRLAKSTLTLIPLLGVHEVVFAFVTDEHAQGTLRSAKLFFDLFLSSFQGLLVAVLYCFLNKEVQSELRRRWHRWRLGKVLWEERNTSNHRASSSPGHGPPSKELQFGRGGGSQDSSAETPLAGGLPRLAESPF
How it was run: as §1

GIPR = molecular target: T3, GIPR (Homo sapiens, UniProt P48546); test: In vitro cell activity, cAMP production in HEK293 cells expressing GIPR; format: cell-based
T3 construct: expressed in transfected cells; host or cells: HEK293 (HEK293-GIPR)
T3 sequence (P48546 22-466): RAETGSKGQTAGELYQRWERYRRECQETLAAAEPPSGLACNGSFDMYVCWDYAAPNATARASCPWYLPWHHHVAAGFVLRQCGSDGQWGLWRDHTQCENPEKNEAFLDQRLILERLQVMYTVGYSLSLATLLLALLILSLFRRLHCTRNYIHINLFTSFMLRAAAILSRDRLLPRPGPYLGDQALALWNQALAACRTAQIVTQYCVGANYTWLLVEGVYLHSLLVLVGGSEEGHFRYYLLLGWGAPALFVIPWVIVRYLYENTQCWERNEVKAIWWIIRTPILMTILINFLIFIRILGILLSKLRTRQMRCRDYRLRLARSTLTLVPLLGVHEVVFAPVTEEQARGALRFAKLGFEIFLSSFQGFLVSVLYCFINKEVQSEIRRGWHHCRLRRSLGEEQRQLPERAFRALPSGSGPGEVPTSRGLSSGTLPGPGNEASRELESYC
How it was run: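 cAMP accumulation is quantified by homogeneous TR-FRET (cAMP-d2 plus anti-cAMP cryptate) in GIPR-expressing HEK293 cells seeded from a 4×10^5 cells/mL suspension and treated with compound. The signal ratio is plotted against concentration and fitted to a four-parameter curve to give EC50.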

[1] = In vivo efficacy evaluation in db/db mouse model (blood glucose); parameters: species or system db/db mice
Procedure: Blood glucose was tested before each administration.

[2] = Long-term repeated administration in diet-induced obese C57BL/6 mice (DIO); format: in vivo, C57/BL6 mice
[3] = 10 nmol/kg s.c. once every 3 days, D7
[4] = 10 nmol/kg s.c. once every 3 days, D10
[5] = 10 nmol/kg s.c. once every 3 days, D13
[6] = 10 nmol/kg s.c. once every 3 days, D16
[7] = 10 nmol/kg s.c. once every 3 days, D19
[8] = 10 nmol/kg s.c. once every 3 days, D22
[9] = 10 nmol/kg s.c. once every 3 days, D25
[10] = 10 nmol/kg s.c. once every 3 days, D28
[11] = after 4 weeks of administration
[12] = after 4 weeks of administration, same dose
[13] = long-term administration 10 nmol/kg, 72 h after the last administration
[14] = long-term administration 10 nmol/kg, blood biochemical index

T1 sequence (P43220 24-463, species assumed): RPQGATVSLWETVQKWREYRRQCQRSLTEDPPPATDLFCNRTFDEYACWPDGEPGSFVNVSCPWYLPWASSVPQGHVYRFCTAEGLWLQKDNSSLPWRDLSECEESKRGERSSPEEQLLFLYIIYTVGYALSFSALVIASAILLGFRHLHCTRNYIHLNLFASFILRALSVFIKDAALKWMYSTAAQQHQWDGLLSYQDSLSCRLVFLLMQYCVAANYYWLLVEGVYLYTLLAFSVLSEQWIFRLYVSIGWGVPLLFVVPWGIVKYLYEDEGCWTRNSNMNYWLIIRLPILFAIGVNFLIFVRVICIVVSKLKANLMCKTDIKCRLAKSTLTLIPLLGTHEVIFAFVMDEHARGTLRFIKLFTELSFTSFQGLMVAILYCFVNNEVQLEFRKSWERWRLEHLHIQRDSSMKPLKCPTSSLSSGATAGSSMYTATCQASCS

CC[C@H](C)[C@H](NC(=O)[C@H](Cc1ccccc1)NC(=O)[C@H](CCC(=O)O)NC(=O)[C@H](CCCNC(=N)N)NC(=O)[C@H](CCC(N)=O)NC(=O)[C@H](CCCNC(=N)N)NC(=O)[C@H](CCCCNC(=O)COCCOCCNC(=O)CC[C@H](NC(=O)CCCCCCCCCCCCCCCCC(=O)O)C(=O)O)NC(=O)[C@H](CCC(=O)O)NC(=O)[C@H](CC(=O)O)NC(=O)[C@H](CC(C)C)NC(=O)[C@H](CC(C)C)NC(=O)[C@@H](NC(=O)[C@H](CO)NC(=O)[C@H](Cc1ccc(O)cc1)NC(=O)[C@H](CC(=O)O)NC(=O)[C@H](CO)NC(=O)[C@@H](NC(=O)[C@](C)(Cc1ccccc1F)NC(=O)[C@@H](NC(=O)CNC(=O)[C@H](Cc1c[nH]cn1)NC(=O)C(C)(C)NC(=O)[C@@H](N)Cc1ccc(O)cc1)[C@@H](C)O)[C@@H](C)O)[C@@H](C)CC)C(=O)N[C@@H](CCC(=O)O)C(=O)N[C@@H](Cc1c[nH]c2ccccc12)C(=O)N[C@@H](CC(C)C)C(=O)N[C@@H](CC(C)C)C(=O)N[C@@H](C)C(=O)NCC(=O)NCC(=O)N1CCC[C@H]1C(=O)N[C@@H](CO)C(=O)N[C@@H](CO)C(=O)NCC(=O)N[C@@H](C)C(=O)N1CCC[C@H]1C(=O)N1CCC[C@H]1C(=O)N1CCC[C@H]1C(=O)N[C@@H](CO)C(=O)O [HEC-PT77]
EC50 (GLP-1R): 0.0656 nM
EC50 (GCGR): 0.144 nM
EC50 (GIPR): 0.0227 nM
blood glucose after administration ([1]; db/db mice, 10 nmol/kg): significantly reduce blood glucose
Random blood glucose (mM) D0 ([1]; db/db mice, 10 nmol/kg s.c. once every three days, D0 (before first dose)): 26.6 ± 4.2 mM
Random blood glucose (mM) D3 ([1]; db/db mice, 10 nmol/kg s.c. once every three days, D3): 15.8 ± 4.0 mM
Random blood glucose (mM) D4 ([1]; db/db mice, 10 nmol/kg s.c. once every three days, D4): 17.8 ± 5.9 mM
Random blood glucose (mM) D5 ([1]; db/db mice, 10 nmol/kg s.c. once every three days, D5): 21.5 ± 5.6 mM
Random blood glucose (mM) D6 ([1]; db/db mice, 10 nmol/kg s.c. once every three days, D6): 24.1 ± 4.6 mM
Random blood glucose (mM) D7 ([1]; db/db mice, 10 nmol/kg s.c. once every three days, D7): 21.9 ± 3.9 mM
Random blood glucose (mM) D10 ([1]; db/db mice, 10 nmol/kg s.c. once every three days, D10): 13.4 ± 5.4 mM
Random blood glucose (mM) D13 ([1]; db/db mice, 10 nmol/kg s.c. once every three days, D13): 15.7 ± 5.4 mM
Random blood glucose (mM) D16 ([1]; db/db mice, 10 nmol/kg s.c. once every three days, D16): 12.7 ± 6.1 mM
Random blood glucose (mM) D19 ([1]; db/db mice, 10 nmol/kg s.c. once every three days, D19): 15.5 ± 4.6 mM
Random blood glucose (mM) D22 ([1]; db/db mice, 10 nmol/kg s.c. once every three days, D22): 15.6 ± 6.1 mM
Random blood glucose (mM) D25 ([1]; db/db mice, 10 nmol/kg s.c. once every three days, D25): 14.2±5.1^a mM
Random blood glucose (mM) 6 h ([1]; db/db mice, 10 nmol/kg s.c., 6 h): 15.9 ± 5.9 mM
Random blood glucose (mM) 24 h ([1]; db/db mice, 10 nmol/kg s.c., 24 h): 8.1 ± 4.5 mM
Random blood glucose (mM) 48 h ([1]; db/db mice, 10 nmol/kg s.c., 48 h): 11.1 ± 6.2 mM
time at which blood glucose levels reached the lowest level ([1]; db/db mice, 10 nmol/kg, after administration): about 24 hours
blood glucose lowering after long-term administration compared with LY3298176 ([1]; db/db mice, long-term repeated administration): not inferior to the positive control LY3298176
blood glucose reducing effect after administration compared with LY3298176 ([1]; db/db mice, same dose 10 nmol/kg): slightly better than the positive control LY3298176
blood glucose level after long-term administration ([1]; type II diabetes model db/db mice): significantly improve the blood glucose level
Cumulative food intake (g/pcs) D7 [2, 3]: 8.7 g/pcs
Weight gain rate (%) D7 [2, 3]: -14.9±3.8%
Cumulative food intake (g/pcs) D10 [2, 4]: 11.4 g/pcs
Weight gain rate (%) D10 [2, 4]: -20.9±4.0%
Cumulative food intake (g/each) D13 [2, 5]: 14.4 g/each
Weight gain rate (%) D13 [2, 5]: -24.7±5.5%
Cumulative food intake (g/each) D16 [2, 6]: 19.1 g/each
Weight gain rate (%) D16 [2, 6]: -26.6±5.6%
Cumulative food intake (g/each) D19 [2, 7]: 24.7 g/each
Weight gain rate (%) D19 [2, 7]: -27.7±5.5%
Cumulative food intake (g/each) D22 [2, 8]: 30.6 g/each
Weight gain rate (%) D22 [2, 8]: -28.9±6.4%
Cumulative food intake (g/each) D25 [2, 9]: 36.7 g/each
Weight gain rate (%) D25 [2, 9]: -31.2±6.9%
Cumulative food intake (g/each) D28 [2, 10]: 43.7 g/each
Weight gain rate (%) D28 [2, 10]: -30.4±5.2%
Cumulative food intake (g/each) D30 ([2]; 10 nmol/kg s.c. once every 3 days, D30): 47.5^a g/each
Weight gain rate (%) D31 ([2]; 10 nmol/kg s.c. once every 3 days, D31): -30.2±4.9^a %
Cumulative food intake (g/pcs) D0 ([2]; 10 nmol/kg s.c., D0): 2.4 g/pcs
Weight gain rate (%) D0 ([2]; 10 nmol/kg s.c., D0): 0.0±0.0%
Cumulative food intake (g/pcs) D1 ([2]; 10 nmol/kg s.c., D1): 2.8 g/pcs
Weight gain rate (%) D1 ([2]; 10 nmol/kg s.c., D1): -5.5±0.7%
Cumulative food intake (g/pcs) D2 ([2]; 10 nmol/kg s.c., D2): 3.6 g/pcs
Weight gain rate (%) D2 ([2]; 10 nmol/kg s.c., D2): -7.7±1.9%
Cumulative food intake (g/pcs) D3 ([2]; 10 nmol/kg s.c., D3): 4.7 g/pcs
Weight gain rate (%) D3 ([2]; 10 nmol/kg s.c., D3): -8.4±0.9%
Cumulative food intake (g/pcs) D4 ([2]; 10 nmol/kg s.c., D4): 6.3 g/pcs
Weight gain rate (%) D4 ([2]; 10 nmol/kg s.c., D4): -7.1±3.5%
liver function and blood lipids of DIO mice [2, 11]: significantly improved the liver function and blood lipids
weight loss and food intake inhibition effects compared with Semaglutide [2, 11]: superior to the positive drug Semaglutide
food intake inhibition effect compared with LY3298176 [2, 12]: comparable to those of the same dose of the positive drug LY3298176
weight loss effect compared with LY3298176 [2, 12]: comparable to those of the same dose of the positive drug LY3298176
Liver index/% [2, 13]: 2.7±0.0^a %
Liver/g [2, 13]: 0.9±0.1^a g
Weight/g [2, 13]: 31.5±3.2^a g
ALT (U/L) [2, 14]: 29.1±5.8^a U/L
AST (U/L) [2, 14]: 112.0±20.9^a U/L
CHOL (mmol/L) [2, 14]: 3.2±0.5^a mmol/L
TRIGL (mmol/L) [2, 14]: 0.6±0.1^a mmol/L

— patent EP4596574A1, “GLP-1/GCG/GIP TRIPLE-RECEPTOR AGONIST AND USE THEREOF” (Sunshine Lake Pharma Co., Ltd., priority 2022, dated 2024)
